Test results published in US12303497B2, “Anti-androgens for the treatment of metastatic castration-sensitive prostate cancer” (priority 2019, dated 2025).

System: patients with metastatic castration-sensitive prostate cancer (mCSPC)

Structure (SMILES): CNC(=O)c1ccc(N2C(=S)N(c3cnc(C#N)c(C(F)(F)F)c3)C(=O)C23CCC3)cc1F [Apalutamide, 4-[7-(6-cyano-5-trifluoromethylpyridin-3-yl)-8-oxo-6-thioxo-5,7-diazaspiro[3.4]oct-5-yl]-2-fluoro-N-methylbenzamide]
- Grade ≥3 rash led to discontinuation (7 patients): 1.3%
- Skin rash led to treatment discontinuation (12 patients): 2.3%
- Skin rash led to dose reduction (28 patients): 5.3%
- Adverse events led to discontinuation (42 patients): 8.0%
- Skin rash led to dose interruption (44 patients): 8.4%
- AE leading to discontinuation: Alanine aminotransferase increased (All Grades): 0 no. (%)
- AE leading to discontinuation: Anxiety (All Grades): 1 (0.2) no. (%)
- AE leading to discontinuation: Atrial fibrillation (All Grades): 1 (0.2) no. (%)
- AE leading to discontinuation: Cardiac failure (All Grades): 0 no. (%)
- AE leading to discontinuation: Cardio-respiratory arrest (All Grades): 1 (0.2) no. (%)
- AE leading to discontinuation: Cardiogenic shock (All Grades): 1 (0.2) no. (%)
- AE leading to discontinuation: Cerebrovascular disorder (All Grades): 1 (0.2) no. (%)
- AE leading to discontinuation: Cognitive disorder (All Grades): 0 no. (%)
- AE leading to discontinuation: Dehydration (All Grades): 1 (0.2) no. (%)
- AE leading to discontinuation: Dyspnea (All Grades): 0 no. (%)
- AE leading to discontinuation: Euphoric mood (All Grades): 1 (0.2) no. (%)
- AE leading to discontinuation: Fatigue (All Grades): 4 (0.8) no. (%)
- AE leading to discontinuation: Hot flush (All Grades): 1 (0.2) no. (%)
- AE leading to discontinuation: Hypothermia (All Grades): 0 no. (%)
- AE leading to discontinuation: Infections (All Grades): 1 (0.2) no. (%)
- AE leading to discontinuation: Intracranial hemorrhage (All Grades): 0 no. (%)
- AE leading to discontinuation: Ischemic cardiac events (All Grades): 2 (0.4) no. (%)
- AE leading to discontinuation: Large intestinal ulcer perforation (All Grades): 1 (0.2) no. (%)
- AE leading to discontinuation: Lip swelling (All Grades): 1 (0.2) no. (%)
- AE leading to discontinuation: Loss of consciousness (All Grades): 0 no. (%)
- AE leading to discontinuation: New cancer neoplasm (All Grades): 7 (1.3) no. (%)
- AE leading to discontinuation: Parkinson's disease (All Grades): 1 (0.2) no. (%)
- AE leading to discontinuation: Pleural effusion (All Grades): 0 no. (%)
- AE leading to discontinuation: Pulmonary edema (All Grades): 0 no. (%)
- AE leading to discontinuation: Pulmonary embolism (All Grades): 1 (0.2) no. (%)
- AE leading to discontinuation: Radiculopathy (All Grades): 1 (0.2) no. (%)
- AE leading to discontinuation: Rash (grouped term) (All Grades): 12 (2.3) no. (%)
- AE leading to discontinuation: Respiratory failure (All Grades): 0 no. (%)
- AE leading to discontinuation: Seizure (All Grades): 2 (0.4) no. (%)
- AE leading to discontinuation: Subdural hemorrhage (All Grades): 0 no. (%)
- AE leading to discontinuation: Sudden cardiac death (All Grades): 1 (0.2) no. (%)
- AE leading to discontinuation: Sudden death (All Grades): 0 no. (%)
- AE leading to discontinuation: Suicide (All Grades): 0 no. (%)
- AE leading to dose interruption: Acute kidney injury (All Grades): 1 (0.2) no. (%)
- AE leading to dose interruption: Acute respiratory failure (All Grades): 1 (0.2) no. (%)
- AE leading to dose interruption: Allergy to chemicals (All Grades): 1 (0.2) no. (%)
- AE leading to dose interruption: Anemia (All Grades): 2 (0.4) no. (%)
- AE leading to dose interruption: Angina unstable (All Grades): 0 no. (%)
- AE leading to dose interruption: Anxiety (All Grades): 2 (0.4) no. (%)
- AE leading to dose interruption: Arthralgia (All Grades): 2 (0.4) no. (%)
- AE leading to dose interruption: Aspartate aminotransferase or alanine aminotransferase increased (All Grades): 7 (1.3) no. (%)
- AE leading to dose interruption: Asthenia (All Grades): 3 (0.6) no. (%)
- AE leading to dose interruption: Atrial fibrillation (All Grades): 1 (0.2) no. (%)
- AE leading to dose interruption: Bile duct obstruction (All Grades): 0 no. (%)
- AE leading to dose interruption: Blood alkaline phosphatase increased (All Grades): 1 (0.2) no. (%)
- AE leading to dose interruption: Cardiac amyloidosis (All Grades): 0 no. (%)
- AE leading to dose interruption: Cardiac disorder (All Grades): 0 no. (%)
- AE leading to dose interruption: Cardiac failure (All Grades): 0 no. (%)
- AE leading to dose interruption: Cardiac failure congestive (All Grades): 1 (0.2) no. (%)
- AE leading to dose interruption: Cerebrovascular accident (All Grades): 1 (0.2) no. (%)
- AE leading to dose interruption: Cheilitis (All Grades): 1 (0.2) no. (%)
- AE leading to dose interruption: Chronic hepatitis (All Grades): 1 (0.2) no. (%)
- AE leading to dose interruption: Chronic obstructive pulmonary disease (All Grades): 2 (0.4) no. (%)
- AE leading to dose interruption: Cognitive disorder (All Grades): 1 (0.2) no. (%)
- AE leading to dose interruption: Confusional state (All Grades): 1 (0.2) no. (%)
- AE leading to dose interruption: Constipation (All Grades): 1 (0.2) no. (%)
- AE leading to dose interruption: Decreased appetite (All Grades): 2 (0.4) no. (%)
- AE leading to dose interruption: Dehydration (All Grades): 0 no. (%)
- AE leading to dose interruption: Depression (All Grades): 1 (0.2) no. (%)
- AE leading to dose interruption: Diabetes mellitus (All Grades): 1 (0.2) no. (%)
- AE leading to dose interruption: Diarrhea (All Grades): 1 (0.2) no. (%)
- AE leading to dose interruption: Diplegia (All Grades): 0 no. (%)
- AE leading to dose interruption: Dizziness (All Grades): 1 (0.2) no. (%)
- AE leading to dose interruption: Dyspnea (All Grades): 1 (0.2) no. (%)
- AE leading to dose interruption: Dysuria (All Grades): 1 (0.2) no. (%)
- AE leading to dose interruption: Edema (All Grades): 1 (0.2) no. (%)
- AE leading to dose interruption: Eyelid edema (All Grades): 1 (0.2) no. (%)
- AE leading to dose interruption: Facial edema (All Grades): 1 (0.2) no. (%)
- AE leading to dose interruption: Fall (All Grades): 1 (0.2) no. (%)
- AE leading to dose interruption: Fatigue (All Grades): 6 (1.1) no. (%)
- AE leading to dose interruption: Febrile neutropenia (All Grades): 1 (0.2) no. (%)
- AE leading to dose interruption: Gamma-glutamyltransferase increased (All Grades): 1 (0.2) no. (%)
- AE leading to dose interruption: Gastric ulcer perforation (All Grades): 1 (0.2) no. (%)
- AE leading to dose interruption: Gastritis (All Grades): 0 no. (%)
- AE leading to dose interruption: General physical health deterioration (All Grades): 1 (0.2) no. (%)
- AE leading to dose interruption: Hallucination (All Grades): 1 (0.2) no. (%)
- AE leading to dose interruption: Headache (All Grades): 1 (0.2) no. (%)
- AE leading to dose interruption: Hematoma (All Grades): 1 (0.2) no. (%)
- AE leading to dose interruption: Hematuria (All Grades): 2 (0.4) no. (%)
- AE leading to dose interruption: Hemorrhage intracranial (All Grades): 1 (0.2) no. (%)
- AE leading to dose interruption: Hemorrhagic erosive gastritis (All Grades): 1 (0.2) no. (%)
- AE leading to dose interruption: Hepatic cirrhosis (All Grades): 1 (0.2) no. (%)
- AE leading to dose interruption: Hepatic failure (All Grades): 0 no. (%)
- AE leading to dose interruption: Hip fracture (All Grades): 1 (0.2) no. (%)
- AE leading to dose interruption: Hot flush (All Grades): 1 (0.2) no. (%)
- AE leading to dose interruption: Hydronephrosis (All Grades): 0 no. (%)
- AE leading to dose interruption: Hyperbilirubinemia (All Grades): 1 (0.2) no. (%)
- AE leading to dose interruption: Hypersensitivity (All Grades): 1 (0.2) no. (%)
- AE leading to dose interruption: Hypertension (All Grades): 6 (1.1) no. (%)
- AE leading to dose interruption: Hypertriglyceridemia (All Grades): 2 (0.4) no. (%)
- AE leading to dose interruption: Hypokalemia (All Grades): 1 (0.2) no. (%)
